O=C(NCCO[N+](=O)[O-])c1cccnc1
solubility (mole fraction)
Details | 278.15 K | 283.15 K | 288.15 K | 293.15 K | 298.15 K | 303.15 K | 308.15 K | 313.15 K | 318.15 K | 323.15 K
in DMF | 0.0135 | 0.0146 | 0.0156 | 0.0168 | 0.0179 | 0.0191 | 0.0202 | 0.0213 | 0.0225 | 0.024
in ethanol | 0.00153 | 0.00167 | 0.00181 | 0.00195 | 0.00208 | 0.00222 | 0.00236 | 0.0025 | 0.00264 | 0.00281
in isopropanol | 0.0011 | 0.00119 | 0.00129 | 0.00139 | 0.00149 | 0.00159 | 0.00169 | 0.00178 | 0.00188 | 0.002
in methanol | 0.0017 | 0.00182 | 0.00195 | 0.00211 | 0.00226 | 0.0024 | 0.00256 | 0.00271 | 0.00286 | 0.00306
in water | 0.000204 | 0.000222 | 0.00024 | 0.000257 | 0.000275 | 0.000291 | 0.000307 | 0.000325 | 0.000346 | 0.000367

From BigSolDB 2.1
